Results published in US8748407B2 (The Research Foundation for the State University of New York, priority 2010, dated 2014).

Legend:
Assay type in all cases: cell-based
GluA1 = target: T1, GluA1 (Rattus norvegicus, UniProt P19490); assay: Whole-cell current recording, GluA1
T1 construct: expressed in transfected cells; host or cells: HEK-293S
Source text: (§1) The original cDNAs in pBlueScript encoding rat GluA1, 2 and 3 AMPA receptors and GluK2 kainate receptor were kindly provided by Steve Heinemann. The GluA4 DNA plasmid was kindly provided by Peter Seeburg. The GluK1 plasmid was kindly provided by Geoffrey Swanson. The cDNAs of all three NMDA receptor subunits were gifts from John Woodward. All DNA plasmids were propagated using Escherichia coli host (DH5α) and purified using QIAGEN DNA purification kits.
(§2) All of the receptors were transiently expressed in HEK-293S cell. HEK-293S cells were maintained in Dulbecco's modified Eagle's medium (DMEM) supplemented with 10% fetal bovine serum and 1% penicillin in a 37° C., 5% CO2, humidified incubator. Receptors were transiently transfected by using calcium phosphate or lipofectamine 2000 (Invitrogen). The DNA plasmids encoding green fluorescent protein (GFP) and T-antigen (TAg) were cotransfected in HEK-293 S cells. […]
(§3) The procedure for whole-cell current recording to assay the inhibitory property of an RNA aptamer is known to those of skill in the art and has been previously described^7. […] The whole-cell current was recorded using an Axopatch-200B amplifier at a cutoff frequency of 2-20 kHz by a built-in, eight-pole Bessel filter and digitized at 5-50 kHz sampling frequency using a Digidata 1322A from Axon Instruments (Molecular Devices, Sunnyvale, Calif.). […]

GluA3 = target: T2, GluA3 (Rattus norvegicus, UniProt P19492); assay: Whole-cell current recording, GluA3
T2 construct: expressed in transfected cells; host or cells: HEK-293S
Source text: as §1, §2, §3

GluA4 = target: T3, GluA4 (Rattus norvegicus, UniProt P19493); assay: Whole-cell current recording, GluA4
T3 construct: expressed in transfected cells; host or cells: HEK-293S
Source text: as §1
All of the receptors were transiently expressed in HEK-293S cell. HEK-293S cells were maintained in Dulbecco's modified Eagle's medium (DMEM) supplemented with 10% fetal bovine serum and 1% penicillin in a 37° C., 5% CO2, humidified incubator. Receptors were transiently transfected by using calcium phosphate or lipofectamine 2000 (Invitrogen). The DNA plasmids encoding green fluorescent protein (GFP) and T-antigen (TAg) were cotransfected in HEK-293 S cells. GFP was used as a transfection marker for cell recording, and TAg was cotransfected to potentiate the receptor expression at the single-cell level^6. Transfected cells were allowed to grow for 48 hour before they were used for recording.
The procedure for whole-cell current recording to assay the inhibitory property of an RNA aptamer is known to those of skill in the art and has been previously described^7. […] The extracellular buffer composition is described above (see “Receptor Preparation”). For recording of the NMDA channels, the intracellualr solution contained (in mM) 140 CsCl, 1 MgCl2, 0.1 EGTA, and 10 HEPES (pH 7.2 adjusted by […]), while the extracellular solution contained (in mM) 135 NaCl, 5.4 KCl, 1.8 CaCl2, 10 glucose and 5 HEPES (pH 7.2 adjusted by NaOH). In the extracellular buffer, 2 μM of glycine was added (glycine was the co-agonist of NMDA receptor)^2. All reagents including aptamer were dissolved in the corresponding extracellular buffer and used. […] The whole-cell current was recorded using an Axopatch-200B amplifier at a cutoff frequency of 2-20 kHz by a built-in, eight-pole Bessel filter and digitized at 5-50 kHz sampling frequency using a Digidata 1322A from Axon Instruments (Molecular Devices, Sunnyvale, Calif.). The pClamp 8 software (Molecular Devices) was used for data acquisition. All whole-cell recordings were at −60 mV and 22° C.

GluK1 = assay: Whole-cell current recording, kainate receptor GluK1
Source text: as §1, §2, §3

GluN1a/2A = target: T4, GluN1a/2A (Rattus norvegicus, UniProt P35439+Q00959); assay: Whole-cell current recording, NMDA receptor GluN1a/2A
T4 construct: expressed in transfected cells; host or cells: HEK-293S
Source text: as §1, §2, §3

GluN1a/2B = target: T5, GluN1a/2B (Rattus norvegicus, UniProt P35439+Q00960); assay: Whole-cell current recording, NMDA receptor GluN1a/2B
T5 construct: expressed in transfected cells; host or cells: HEK-293S
Source text: as §1, §2, §3

GluA2Qflip = target: T6, GluA2Qflip (Rattus norvegicus, UniProt P19491); assay: Laser-pulse photolysis of caged glutamate, channel-opening kinetics
T6 construct: expressed in transfected cells; host or cells: HEK-293S
Source text: The use of the laser-pulse photolysis technique to measure the channel-opening kinetics has been described^7. […] In the laser-pulse photolysis measurement of channel opening, a single laser pulse at 355 nm with a pulse length of 8 ns was generated from a pulsed Q-switched Nd:YAG laser (Continuum, Santa Clara, Calif.). The pulse energy varied in the range of 200-800 μJ, measured at the end of an optical fiber (300 μm core diameter) into which the laser was coupled. […] The current amplitudes obtained from this calibration were compared with the amplitude from the laser measurement with reference to the dose-response relationship. These measurements also allowed us to monitor any damage to the receptors and/or the cell for successive laser experiments with the same cell^7.
To deliver AG56 to a HEK-293 cell, a “Ψ”-shaped flow device was used. […] In all experiments reported in this study, a 6-second preincubation flow protocol was used for full aptamer preincubation. […] The corrected current amplitude was used for data analysis.
The use of this technique allows the investigation of the effect of AG56 on the channel-opening kinetic mechanism of the GluA2Qflip receptors. Before describing how the mechanism of inhibition is elucidated, the kinetic characterization of channel-opening rate process is presented.
A represents the active form of the receptor, L, the ligand, ALn the closed-channel forms, and ALn the open-channel form, K1 the intrinsic dissociation constant of activating ligand and Φ the channel opening equilibrium constant (Φ^−1=kcl/kop). Based on this mechanism and the assumption that the ligand-binding rate was fast as compared to the channel opening, the observed rate constant of channel opening or kobs can be formulated as in equ. 2.
In equ. 2, kcl is the channel-closing rate constant or the lifetime of the channel, τ (τ=1/kcl), kop is the channel-opening rate constant, and n the number of the ligand molecules to bind to the receptor complex to open the channel (i.e., n=1-4). Imax is the maximum current amplitude, and It is the current amplitude at time t.
The mechanism of inhibition was characterized by studying the effect of an inhibitor such as AG56 on the channel-opening rate process^13,14. In general there are three ways in which an ion channel receptor can be inhibited. For instance, an inhibitor binds only to the open-channel state or conformation and then inhibits it (Mechanism 1, uncompetitive mechanism of inhibition or open-channel blockade). Alternatively, an inhibitor binds to both the closed- and open-channel states through a regulatory site (Mechanism 2, noncompetitive mechanism). The observed rate constant, kobs in the presence and absence of an inhibitor can be measured using equ. 3. […] 4 for mechanism 1, and equ. 5 for mechanism 2.
In deriving these equations, one binding site for inhibitor per receptor molecule is assumed. […] 4 or 5 to the overall rate, kobs, is negligible. Under this condition, the effect of the inhibitor on the kcl can be measured^13. Specifically, for both Mechanisms 1 and 2, the effects of the inhibitor on kcl are the same, and can be obtained by equ. 6, which can be derived from either equ. 4 or 5. From equ. 6, the equilibrium dissociation constant of the inhibitor from the open-channel state, KI, can be determined.
For Mechanism 2 or a noncompetitive mechanism of inhibition, the inhibitor will affect kop additionally (equ. 8), if KI<I, I being the molar concentration used to measure the KI value. Consequently the dissociation constant of the inhibitor for the closed-channel conformation can be further determined for Mechanism 2. It should be emphasized that the presence of an inhibitory effect of a noncompetitive inhibitor is due to the fact that the inhibitor must first bind to the closed-channel conformation, as illustrated in Mechanism 2, shown above. […]

[1] = 100 μM photolytically released glutamate

T6 sequence (P19491 22-883 isoform P19491-2): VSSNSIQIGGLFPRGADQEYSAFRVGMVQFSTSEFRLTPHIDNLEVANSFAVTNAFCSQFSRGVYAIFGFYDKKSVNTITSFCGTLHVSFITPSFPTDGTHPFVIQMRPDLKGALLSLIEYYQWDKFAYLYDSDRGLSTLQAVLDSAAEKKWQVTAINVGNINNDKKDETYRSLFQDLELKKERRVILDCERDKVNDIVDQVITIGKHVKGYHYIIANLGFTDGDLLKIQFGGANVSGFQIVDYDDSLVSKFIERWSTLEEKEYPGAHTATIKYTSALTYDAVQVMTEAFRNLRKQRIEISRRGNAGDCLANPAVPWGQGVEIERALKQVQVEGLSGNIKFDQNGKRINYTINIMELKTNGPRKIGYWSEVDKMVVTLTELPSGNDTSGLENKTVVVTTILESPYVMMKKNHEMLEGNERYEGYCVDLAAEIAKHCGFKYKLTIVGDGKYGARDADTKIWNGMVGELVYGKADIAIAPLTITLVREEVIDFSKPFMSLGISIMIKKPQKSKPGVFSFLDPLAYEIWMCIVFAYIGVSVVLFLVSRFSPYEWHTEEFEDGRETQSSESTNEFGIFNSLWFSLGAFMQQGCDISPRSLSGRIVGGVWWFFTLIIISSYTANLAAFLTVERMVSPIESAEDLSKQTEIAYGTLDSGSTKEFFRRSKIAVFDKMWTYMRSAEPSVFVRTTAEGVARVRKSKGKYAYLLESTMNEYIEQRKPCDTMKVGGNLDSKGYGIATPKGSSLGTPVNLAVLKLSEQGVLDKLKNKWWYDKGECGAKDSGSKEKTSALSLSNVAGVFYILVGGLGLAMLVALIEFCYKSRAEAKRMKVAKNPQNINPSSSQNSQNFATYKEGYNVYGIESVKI
T3 sequence (P19493 21-902): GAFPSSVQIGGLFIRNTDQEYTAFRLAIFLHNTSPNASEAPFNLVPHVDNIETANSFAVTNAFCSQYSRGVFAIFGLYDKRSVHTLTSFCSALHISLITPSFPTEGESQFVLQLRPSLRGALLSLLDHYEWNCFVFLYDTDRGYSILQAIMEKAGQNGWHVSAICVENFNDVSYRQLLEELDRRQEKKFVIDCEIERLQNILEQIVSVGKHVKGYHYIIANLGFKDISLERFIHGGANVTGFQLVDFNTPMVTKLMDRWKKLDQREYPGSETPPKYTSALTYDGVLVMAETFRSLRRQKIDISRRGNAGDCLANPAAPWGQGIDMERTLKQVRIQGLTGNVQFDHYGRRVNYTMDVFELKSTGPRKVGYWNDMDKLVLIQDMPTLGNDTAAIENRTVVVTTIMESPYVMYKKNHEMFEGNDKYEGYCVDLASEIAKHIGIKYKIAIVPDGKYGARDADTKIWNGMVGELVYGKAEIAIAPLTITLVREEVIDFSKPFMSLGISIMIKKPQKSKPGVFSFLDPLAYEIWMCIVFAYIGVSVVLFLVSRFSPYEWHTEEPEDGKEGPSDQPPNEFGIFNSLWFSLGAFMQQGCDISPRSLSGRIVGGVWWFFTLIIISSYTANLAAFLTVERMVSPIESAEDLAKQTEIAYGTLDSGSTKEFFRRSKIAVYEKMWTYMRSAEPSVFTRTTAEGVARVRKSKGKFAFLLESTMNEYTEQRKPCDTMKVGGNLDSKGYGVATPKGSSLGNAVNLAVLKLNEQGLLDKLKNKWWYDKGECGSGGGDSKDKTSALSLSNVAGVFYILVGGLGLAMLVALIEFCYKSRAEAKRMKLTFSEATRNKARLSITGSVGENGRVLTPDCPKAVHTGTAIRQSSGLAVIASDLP
T2 sequence (P19492 23-888): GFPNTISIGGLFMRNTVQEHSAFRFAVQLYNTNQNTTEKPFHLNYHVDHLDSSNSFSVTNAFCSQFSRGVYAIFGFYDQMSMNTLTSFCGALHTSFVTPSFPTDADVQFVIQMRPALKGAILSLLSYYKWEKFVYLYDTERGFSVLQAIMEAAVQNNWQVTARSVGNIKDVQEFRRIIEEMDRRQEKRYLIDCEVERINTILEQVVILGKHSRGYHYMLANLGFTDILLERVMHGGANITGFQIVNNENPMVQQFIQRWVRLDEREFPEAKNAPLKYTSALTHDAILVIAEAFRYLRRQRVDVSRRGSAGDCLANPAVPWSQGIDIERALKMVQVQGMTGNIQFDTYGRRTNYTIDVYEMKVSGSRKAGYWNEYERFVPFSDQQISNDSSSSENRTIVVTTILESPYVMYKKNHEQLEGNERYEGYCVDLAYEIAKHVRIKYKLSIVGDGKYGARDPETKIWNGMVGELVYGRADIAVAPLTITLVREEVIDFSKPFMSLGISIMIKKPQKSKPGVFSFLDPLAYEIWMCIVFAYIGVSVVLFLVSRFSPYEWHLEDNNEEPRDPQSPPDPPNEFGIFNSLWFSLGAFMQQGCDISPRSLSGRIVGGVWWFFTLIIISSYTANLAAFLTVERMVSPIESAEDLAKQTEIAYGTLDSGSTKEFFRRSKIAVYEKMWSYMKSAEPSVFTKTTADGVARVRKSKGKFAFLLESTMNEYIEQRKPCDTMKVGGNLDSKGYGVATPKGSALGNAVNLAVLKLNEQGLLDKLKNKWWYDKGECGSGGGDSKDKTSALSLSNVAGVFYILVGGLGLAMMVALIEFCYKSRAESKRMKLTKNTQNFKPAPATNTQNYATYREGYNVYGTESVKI
T1 sequence (P19490 19-907): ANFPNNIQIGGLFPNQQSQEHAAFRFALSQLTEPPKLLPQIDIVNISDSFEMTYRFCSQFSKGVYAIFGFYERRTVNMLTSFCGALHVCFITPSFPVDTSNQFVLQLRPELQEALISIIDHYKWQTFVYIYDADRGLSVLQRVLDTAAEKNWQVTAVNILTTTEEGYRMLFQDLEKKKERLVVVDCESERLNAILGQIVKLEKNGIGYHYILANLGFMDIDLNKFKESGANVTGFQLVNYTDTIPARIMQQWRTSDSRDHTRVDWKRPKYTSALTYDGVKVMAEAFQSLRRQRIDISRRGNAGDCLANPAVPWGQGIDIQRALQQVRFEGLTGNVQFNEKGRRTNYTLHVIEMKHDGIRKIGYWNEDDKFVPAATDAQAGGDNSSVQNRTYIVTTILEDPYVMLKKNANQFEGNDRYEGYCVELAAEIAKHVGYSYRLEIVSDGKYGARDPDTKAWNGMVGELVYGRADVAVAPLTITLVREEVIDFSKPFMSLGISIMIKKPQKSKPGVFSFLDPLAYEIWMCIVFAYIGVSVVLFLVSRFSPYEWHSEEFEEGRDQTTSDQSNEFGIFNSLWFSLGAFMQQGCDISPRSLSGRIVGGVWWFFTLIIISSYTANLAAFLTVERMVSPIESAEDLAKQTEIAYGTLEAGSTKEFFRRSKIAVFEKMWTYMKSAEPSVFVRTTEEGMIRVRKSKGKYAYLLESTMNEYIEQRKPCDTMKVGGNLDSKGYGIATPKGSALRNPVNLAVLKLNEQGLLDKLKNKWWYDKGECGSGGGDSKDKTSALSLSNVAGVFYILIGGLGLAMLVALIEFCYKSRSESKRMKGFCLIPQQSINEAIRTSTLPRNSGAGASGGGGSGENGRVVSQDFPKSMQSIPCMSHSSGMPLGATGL
T4 sequence (Q00959 23-1464, other chains not shown): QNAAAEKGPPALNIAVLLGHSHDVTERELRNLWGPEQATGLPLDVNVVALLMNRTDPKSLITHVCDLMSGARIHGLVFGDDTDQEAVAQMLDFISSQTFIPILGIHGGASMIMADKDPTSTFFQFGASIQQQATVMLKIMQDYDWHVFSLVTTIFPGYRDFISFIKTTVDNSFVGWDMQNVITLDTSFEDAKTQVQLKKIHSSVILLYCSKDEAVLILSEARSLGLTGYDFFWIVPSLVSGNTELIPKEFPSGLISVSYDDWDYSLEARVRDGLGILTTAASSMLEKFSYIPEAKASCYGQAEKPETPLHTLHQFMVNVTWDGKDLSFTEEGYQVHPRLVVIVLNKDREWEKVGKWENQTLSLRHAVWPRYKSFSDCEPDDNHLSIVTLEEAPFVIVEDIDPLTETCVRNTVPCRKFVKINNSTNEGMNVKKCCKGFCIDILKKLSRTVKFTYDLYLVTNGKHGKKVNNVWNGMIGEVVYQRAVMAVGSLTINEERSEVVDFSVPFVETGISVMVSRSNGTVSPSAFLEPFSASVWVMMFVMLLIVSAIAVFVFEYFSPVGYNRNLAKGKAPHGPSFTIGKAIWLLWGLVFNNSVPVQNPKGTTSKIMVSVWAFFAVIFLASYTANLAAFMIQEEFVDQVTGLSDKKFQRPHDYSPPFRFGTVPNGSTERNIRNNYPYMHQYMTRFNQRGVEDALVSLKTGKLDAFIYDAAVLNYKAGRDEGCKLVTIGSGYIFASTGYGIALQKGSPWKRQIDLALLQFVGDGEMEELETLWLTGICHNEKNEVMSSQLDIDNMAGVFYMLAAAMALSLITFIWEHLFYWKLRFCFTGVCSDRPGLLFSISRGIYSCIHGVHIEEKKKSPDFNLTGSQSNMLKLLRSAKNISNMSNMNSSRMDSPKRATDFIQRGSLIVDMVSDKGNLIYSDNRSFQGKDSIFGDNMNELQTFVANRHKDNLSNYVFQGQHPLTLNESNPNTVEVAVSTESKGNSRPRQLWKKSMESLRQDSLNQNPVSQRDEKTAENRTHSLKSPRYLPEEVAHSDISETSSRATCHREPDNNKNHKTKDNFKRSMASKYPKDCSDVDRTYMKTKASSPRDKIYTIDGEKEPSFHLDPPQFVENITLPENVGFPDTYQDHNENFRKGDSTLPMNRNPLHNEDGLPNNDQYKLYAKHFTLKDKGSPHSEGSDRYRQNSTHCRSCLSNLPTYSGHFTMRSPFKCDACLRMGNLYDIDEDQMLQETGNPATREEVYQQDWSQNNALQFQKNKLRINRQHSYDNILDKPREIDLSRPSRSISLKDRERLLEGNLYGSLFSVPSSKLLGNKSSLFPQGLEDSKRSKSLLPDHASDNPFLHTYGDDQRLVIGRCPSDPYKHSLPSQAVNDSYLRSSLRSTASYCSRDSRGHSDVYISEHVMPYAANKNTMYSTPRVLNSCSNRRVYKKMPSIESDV

With “AG56: 56-nucleotide truncated version of AG1407, RNA aptamer (GGGAGAUUGUGAAGCGUAGGCUCGAGUUUGUCCCGCGAGCCAAAGAUUCCAGACCC; RNA, backbone not given here)” the “inhibition of the closed-channel conformation” value (GluA1) was “no inhibitory effect”, the “inhibition of the open-channel conformation” value (GluA1) was “similarly inhibited the open-channel conformation” and the “inhibition of the closed-channel conformation” value (GluA3) was “no inhibitory effect”. The “inhibition of the open-channel conformation” value (GluA3) was “similarly inhibited the open-channel conformation”, the “A/A(I)” value (GluA4; 0.5 μM AG56, 3 mM glutamate, open-channel GluA4) was “not significantly larger than 1.0” and the “A/A(I) ratio” value (GluA4; 1 μM AG56, 3 mM glutamate, open-channel GluA4) was 1.2. For the same substance, the “inhibition of the closed-channel conformation” value (GluA4; GluA4) was “no inhibitory effect”, the “inhibition of the open-channel conformation” value (GluA4; GluA4) was “weak” and the “effect on kainate receptor channel” value (GluK1) was “did not affect”. For the same substance, the “effect on NMDA receptor channel” value (GluN1a/2A) was “did not affect”, the “effect on NMDA receptor channel” value (GluN1a/2B) was “did not affect” and the “effect on channel-closing rate (kcl)” value (GluA2Qflip; [1]) was “inhibited the rate of channel closing”. For the same substance, the “effect on current amplitude” value (GluA2Qflip; [1]) was “did not affect the current amplitude”, the “kobs value, which reflected kcl” value (GluA2Qflip; 100 μM photolytically released glutamate, +0.75 μM AG56 (control 2,200)) was 1,600 s^−1 and the “kobs value, which reflected kop” value (GluA2Qflip; 340 μM photolytically released glutamate, 0.75 μM AG56 (absence 5,128)) was 4,405 s^−1. The “effect on current amplitude” value (GluA2Qflip; higher glutamate concentration) was “reduced the current amplitude” and the “effect on channel-opening rate constant (kop)” value (GluA2Qflip; increased glutamate concentration) was “did not inhibit kop”.
